The values below come from patent US10799480B2, “Calixpyrrole-based antitumor compounds” (Giam Pharma International sarl, priority 2016, dated 2020).

The subject of series [1] is pulmonary carcinoma H727. Kind of series: MTT test on pulmonary carcinoma H727 cell line. The class given is cell-based. The following applies: H727, different concentrations, as such or in lipid nanoparticles (NP). The text has this:
(§1) Cellular vitality tests have been performed by using the derivatives of Formulas VII, I and III on due ovary carcinoma lines (SKOV-3 and A2774), two mammary carcinoma lines (MCF-7 and MDAMB-231) and two pulmonary carcinoma lines (H727 and A549). The compounds of Formulas I and III have further been tested in liposomal nanoparticles (NP) in comparison with the pulmonary carcinoma lines H727. The pulmonary carcinoma lines have been used also as target for determining the genotoxicity of the compounds of Formulas I and III, for determining the type of cellular death, through flow cytometry analyses, and for a preliminary analysis in vivo with toxicity determination and pharmacy-kinetics estimation (compound from Formula I).
(§2) The derivatives of Formulas I and III have been used for a series of MTT tests at different concentrations, as such or from a formulation of lipid nanoparticles (NP), using cellular lines deriving from pulmonary carcinoma H727.

The test system of series [2] is mammary carcinoma MDAMB-231. As to the kind of experiment: MTT test on mammary carcinoma MDAMB-231 cell line. The class given is cell-based. The note with it: Homo sapiens, MDA-MB-231.
Text: as §1
(§3) In particular, for both tumor cellular lines, the derivatives of Formulas I and III have EC50 of about 20 μM, while the derivative of Formula VII has a EC50 included between 20 and 30 μM, as shown in the graphs in FIG. 3 and FIG. 4.
(Tetrazolium dyes change colour on reduction, which living cells bring about.)

Series [3] has as its system DNA of pulmonary carcinoma A549 cells. As to the kind of experiment: Receptor-DNA adducts through 32P marking. It counts as cell-based. The note with it: A549, butanol enrichment.
Series [4] relates to pulmonary carcinoma A549. As to the kind of experiment: MTT test on pulmonary carcinoma A549 cell line. It counts as cell-based. The note with it: for efficacy compared with Endoxan (cyclophosphamide): A549, various concentrations; for efficacy: A549.
Text: as §1, §2
(§4) A series of MTT tests have been performed by using the derivatives of Formulas VI, VIII, II and IV (such compounds can be considered as possible fragments of the macrocycles of Formulas V, VII, I and III). […] The results of these MTT tests show how the cytotoxic activity of the compounds of the invention has to be ascribed to the complete structure of the macrocycle having the acetyl function and not to any isolated component thereof.

Series [5] has as its system pulmonary carcinoma A549. Kind of series: COMET test (DNA fragmentation). It counts as cell-based. The note with it: concentrations from 5 to 50 μM, with respect to standard K. The source says:
These latter data are mainly affected by the fact that this technique is not able to detect dead cells, and, in case of compounds of Formulas I and III, such percentage, as previously seen, is relevant.

The test system of series [6] is ovary carcinoma SKOV-3. Kind of series: MTT test on ovary carcinoma SKOV-3 cell line. It counts as cell-based. The note with it: for EC50: Homo sapiens, SK-OV-3, SKOV-3; for activity: SKOV-3, fragments.
Text: as §1
(§5) The macrocycles of Formulas VII, I and III have been used in MTT tests on cellular lines derive from ovary carcinoma. […] The selectivity shown by the derivative of Formula I compared with a specific cellular line surely needs to be further analyzed as regards its operating mechanism.
as §4

Series [7] deals with pulmonary carcinoma A549. As to the kind of experiment: Flow cytometry analysis of type of cellular death. The class given is cell-based.
Text: as §1
The cellular lines A549 treated with the compound of Formula I show 38.80% of apoptosis (9.05% early apoptosis and 29.75% late apoptosis) compared with a 9.30% of necrosis. The same cells treated with the compound of Formula III show 23.45% of total apoptosis (10.25% early apoptosis and 13.20% late apoptosis) against 4.75% of necrosis.
For orientation: A flow cytometer gives signals particle by particle.

For series [8], the system named is mammary carcinoma MCF-7. As to the kind of experiment: MTT test on mammary carcinoma MCF-7 cell line. It counts as cell-based. The following applies: Homo sapiens, MCF7.
Text: as §1, §3

The test system of series [9] is ovary carcinoma A2774. Kind of series: MTT test on ovary carcinoma A2774 cell line. It counts as cell-based.
Text: as §1, §5

Series [10] deals with NJ mice. The note with it: in vivo. The text has this:
(§6) A preliminary analysis for the toxicity in vivo has been performed by using the compound of Formula I on NJ mice. Due to the particularly hydrophobic nature of such derivative, after various attempts to determine the best solvent mixture, which is non-toxic for the animal, but which contains an adequate concentration of receptor, it has been decided to administer the compound using a mixture containing 10% of DMSO in olive oil. […] After 5 days, the mouse has been sacrificed and, through a HPLC/Mass analysis, the distribution of the compound inside the different compartments has been determined. The different tissues/organs (back sub-skin, spleen, omentum, heart, liver, brain, lung and kidney) have been removed, homogenized and analyzed. A high concentration of the compound of Formula I (determined through the computation of the peak area at m/z 546.31), corresponding to the analyzed compound [M-H]^−), has been observed in the injection site (Area 532.875) and in the spleen (Area 196.233), but the biggest amount has been discovered in the omentum (Area 1.237.999). Lower concentrations have been discovered in the kidney (Area 120.117), in the lung (Area 32.514) and in the heart (Area 29.443). A minimum amount of the compound has been detected in the liver (Area 11.293).

The conditions of series [11]: mouse, in vivo.
Text: as §6

The conditions of series [12]: literature; cited from earlier work.
For series [13], the target named is extrogen receptor GPER (Homo sapiens, UniProt Q99527). The note with it: literature; cited from earlier work.

Molecules are shown by their SMILES. “Also recorded” adds a separate entry of the source.

extrogen receptor GPER, sequence (Q99527 whole entry): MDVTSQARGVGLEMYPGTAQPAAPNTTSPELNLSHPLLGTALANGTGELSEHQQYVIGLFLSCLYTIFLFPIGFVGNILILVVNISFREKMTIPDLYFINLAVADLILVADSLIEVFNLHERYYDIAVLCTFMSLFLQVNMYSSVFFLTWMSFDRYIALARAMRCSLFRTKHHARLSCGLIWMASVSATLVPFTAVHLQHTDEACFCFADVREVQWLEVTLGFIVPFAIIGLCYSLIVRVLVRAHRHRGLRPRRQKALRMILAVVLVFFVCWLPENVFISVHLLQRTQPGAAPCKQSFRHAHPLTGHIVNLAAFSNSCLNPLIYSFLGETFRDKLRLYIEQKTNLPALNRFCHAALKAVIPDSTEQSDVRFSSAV

By EC50 is commonly meant the concentration giving half of the maximal effect. A high value points to a need for much substance. In the case of `CC(=O)Nc1cccc(C2(C)c3ccc([nH]3)C(C)(C)c3ccc([nH]3)C(C)(C)c3ccc([nH]3)C(C)(C)c3ccc2[nH]3)c1` [Formula III], in series [1], the “efficacy (cellular vitality)” value was “maximum efficacy already at the lowest doses being used (5 μM)”. Moreover, the EC50 in series [2] is roughly 20 µM. In addition, in series [3], the “adducts with DNA / genotoxicity” value is reported as “adducts with DNA have been identified; also recorded: higher genotoxicity of the compound of Formula III with respect to the derivative of Formula I”. In [4], the “efficacy compared with Endoxan (cyclophosphamide)” value is given as “even more efficient than the known chemotherapeutic drug Endoxan”. Also, the “fragmentation of DNA” value in series [5] is “have not given any fragmentation of DNA”. For the same compound, the concentration giving a half-maximal response (EC50) in series [6] was roughly 15 µM. Also, in series [7], the early apoptosis was found to be 10.25%, the late apoptosis was found to be 13.20%, the main death mechanism entry is “apoptosis is the main death mechanism” and the necrosis is given as 4.75%. Moreover, the total apoptosis in series [7] is 23.45%. This compound also came in with an EC50 in series [8] of roughly 20 µM. In addition, the EC50 in series [9] is roughly 15 µM.
With `CC(=O)Nc1ccc(C(C)(c2ccc[nH]2)c2ccc[nH]2)cc1` [Formula II], the efficacy result in series [4] is “have not shown any activity”.
With `CC(=O)Nc1cccc(C(C)(c2ccc[nH]2)c2ccc[nH]2)c1` [Formula IV], the efficacy result in series [4] is reported as “have not shown any activity”.
In the case of `CC(=O)Nc1ccc(C2(C)c3ccc([nH]3)C(C)(C)c3ccc([nH]3)C(C)(C)c3ccc([nH]3)C(C)(C)c3ccc2[nH]3)cc1` [Formula I], the “efficacy (cellular vitality)” value in series [1] is “maximum efficacy already at the lowest doses being used (5 μM)”. This compound also returned an EC50 in series [2] of roughly 20 µM. For the same compound, the “adducts with DNA / genotoxicity” value in series [3] is “adducts with DNA have been identified”. In addition, the “efficacy compared with Endoxan (cyclophosphamide)” value in series [4] is “even more efficient than the known chemotherapeutic drug Endoxan”. Moreover, in [5], the “fragmentation of DNA” value was “have not given any fragmentation of DNA”. The “effects on the mouse” value in series [10] (sc, 5 mg/kg) is on record as “without discovering particular effects on the mouse”. Further, in [10] (mouse, ip), the “effect on the animal” value was “has not show any apparent effect on the animal”. In series [11] (NJ, 5 days), the “peak area in the brain” value is on record as 7.735, the “peak area in the heart” value is reported as 29.443, the “peak area in the injection site” value is given as 532.875 and the “peak area in the kidney” value was 120.117. In [11] (NJ, 5 days), the “peak area in the liver” value was found to be 11.293, the “peak area in the lung” value stood at 32.514 and the “peak area in the spleen” value is 196.233. For the same compound, the “passing the hematic-encephalic barrier” value in series [11] was “actually capable of passing the hematic-encephalic barrier”. Further, the EC50 in [6] lay in the range of 1 to 5 µM. Besides, in [7], the early apoptosis is on record as 9.05%, the late apoptosis came to 29.75%, the main death mechanism entry is “apoptosis is the main death mechanism” and the necrosis is 9.30%. The compound also gave a total apoptosis in series [7] of 38.80%. Besides, the EC50 in series [8] was roughly 20 µM. In [9], this compound returned an EC50 of roughly 15 µM.
`CC(c1cccc(N)c1)(c1ccc[nH]1)c1ccc[nH]1` [Formula VIII]: the activity entry in series [6] is recorded as “inefficient”.
Regarding `CC1(C)c2ccc([nH]2)C(C)(C)c2ccc([nH]2)C(C)(c2cccc(N)c2)c2ccc([nH]2)C(C)(C)c2ccc1[nH]2` [Formula VII], the EC50 is 20 to 30 µM in series [2], roughly 15 µM in [6] and 20 to 30 µM in [8]. In [4], the efficacy entry is reported as “seem not show any efficacy”. Besides, in [5], the “fragmentation of DNA” value is reported as “a fragmentation is observed”. In addition, the activity result in series [9] is recorded as “has not shown any activity”.
As to `CC(c1ccc(N)cc1)(c1ccc[nH]1)c1ccc[nH]1` [Formula VI], in series [6], the activity result is on record as “inefficient”.
With `CC1(C)c2ccc([nH]2)C(C)(C)c2ccc([nH]2)C(C)(c2ccc(N)cc2)c2ccc([nH]2)C(C)(C)c2ccc1[nH]2` [Formula V], the efficacy result in series [4] is reported as “seem not show any efficacy”. Further, the “fragmentation of DNA” value in [5] was “a fragmentation is observed”.
Take `CC1(C)c2ccc([nH]2)C(C)(C)c2ccc([nH]2)C(C)(C)c2ccc([nH]2)C(C)(C)c2ccc1[nH]2` [meso-octametil-calix[4]pyrrole]: the cytotoxicity entry in [12] is recorded as “has not appeared as cytotoxic”. In addition, the GPER inhibition entry in [13] is given as “selective inhibitor of the extrogen receptor GPER”.
